Results published in ChEMBL document CHEMBL1154267, “Imidazo[1,5-a][1,2,4]-triazolo[1,5-d][1,4]benzodiazepines as potent and highly selective GABAA alpha5 inverse agonists with potential for the treatment of cognitive dysfunction” (Bioorg Med Chem Lett, 2009).

Biological target: GABA-A receptor; alpha-5/beta-3/gamma-2 (Homo sapiens) (UniProt P18507+P28472+P31644)
Experiment: Inverse agonist activity at GABAA alpha-5-beta-3-gamma-2 receptor assessed as modulation of GABA-induced chloride ion flux by electrophysiology assay relative to GABA
Type: functional

First: Cc1noc(Cc2nc3n(n2)Cc2c(C)ncn2-c2ccc(Br)cc2-3)n1
Second: COCc1nc2n(n1)Cc1c(C)ncn1-c1ccc(Br)cc1-2
The Efficacy of the first is lower: -18% for the first, -3% for the second.

Going from `Cc1nc2n(n1)Cc1c(C)ncn1-c1ccc(Br)cc1-2` to `COc1ccc2c(c1)-c1nc(Cc3cc(C)no3)nn1Cc1c(C)ncn1-2`, the Efficacy rises from -17% to -13%.

Biological target: T1, GABA-A receptor; alpha-3/beta-3/gamma-2 (Homo sapiens, UniProt P18507+P28472+P34903)
T1 sequence (P18507 whole entry): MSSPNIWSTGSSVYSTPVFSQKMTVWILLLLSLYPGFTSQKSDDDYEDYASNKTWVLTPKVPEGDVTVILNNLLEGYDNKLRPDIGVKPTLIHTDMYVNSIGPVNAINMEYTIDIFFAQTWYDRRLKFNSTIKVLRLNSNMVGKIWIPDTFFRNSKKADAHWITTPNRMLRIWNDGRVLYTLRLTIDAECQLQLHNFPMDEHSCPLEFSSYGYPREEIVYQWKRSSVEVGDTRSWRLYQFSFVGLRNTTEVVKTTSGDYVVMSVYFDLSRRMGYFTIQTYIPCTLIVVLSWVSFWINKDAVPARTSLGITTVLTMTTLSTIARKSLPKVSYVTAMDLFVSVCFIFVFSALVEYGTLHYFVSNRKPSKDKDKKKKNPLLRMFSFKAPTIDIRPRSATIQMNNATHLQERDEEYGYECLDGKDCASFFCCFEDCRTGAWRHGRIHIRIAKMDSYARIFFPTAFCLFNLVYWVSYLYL
T1 sequence (P28472 whole entry): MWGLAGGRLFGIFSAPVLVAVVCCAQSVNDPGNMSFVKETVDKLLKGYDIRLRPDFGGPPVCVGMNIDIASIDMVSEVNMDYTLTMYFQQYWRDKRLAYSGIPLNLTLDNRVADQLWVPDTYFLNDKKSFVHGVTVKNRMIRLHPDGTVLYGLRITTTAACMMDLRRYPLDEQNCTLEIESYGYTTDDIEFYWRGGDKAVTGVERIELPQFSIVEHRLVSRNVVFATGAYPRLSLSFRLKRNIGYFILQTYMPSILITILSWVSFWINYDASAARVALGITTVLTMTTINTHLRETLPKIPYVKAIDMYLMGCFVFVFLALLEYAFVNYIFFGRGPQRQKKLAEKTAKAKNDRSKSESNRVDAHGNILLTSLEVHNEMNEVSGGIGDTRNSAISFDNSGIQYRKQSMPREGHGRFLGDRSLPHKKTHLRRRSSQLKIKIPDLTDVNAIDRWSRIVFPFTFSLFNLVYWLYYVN
T1 sequence (P34903 whole entry): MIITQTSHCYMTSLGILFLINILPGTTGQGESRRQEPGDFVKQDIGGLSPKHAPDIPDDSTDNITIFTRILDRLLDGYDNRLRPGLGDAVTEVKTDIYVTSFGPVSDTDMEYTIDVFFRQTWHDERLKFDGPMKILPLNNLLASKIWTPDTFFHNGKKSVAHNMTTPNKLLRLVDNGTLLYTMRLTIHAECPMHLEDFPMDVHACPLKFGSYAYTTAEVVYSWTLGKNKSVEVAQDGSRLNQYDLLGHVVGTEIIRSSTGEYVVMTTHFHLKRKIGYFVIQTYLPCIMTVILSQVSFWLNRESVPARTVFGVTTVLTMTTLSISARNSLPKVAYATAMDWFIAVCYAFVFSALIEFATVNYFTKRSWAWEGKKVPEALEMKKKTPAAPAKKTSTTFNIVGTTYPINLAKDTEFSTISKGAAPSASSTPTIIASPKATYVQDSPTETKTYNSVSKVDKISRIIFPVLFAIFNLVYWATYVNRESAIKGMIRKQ
Experiment: Displacement of [3H]flumazenil from GABAA alpha-3-beta-3-gamma-2 receptor
Type: protein-complex assay

Compared with `Cc1noc(Cc2nc3n(n2)Cc2c(C)ncn2-c2ccc(Br)cc2-3)n1`, `COCc1nc2n(n1)Cc1c(C)ncn1-c1ccc(Br)cc1-2` is 2.1-fold higher in Ki: 0.277 µM for the first, 0.592 µM for the second.

`Cc1nc2n(n1)Cc1c(C)ncn1-c1ccc(Br)cc1-2` gave a Ki of 1.62 µM.

Biological target: T2, GABA-A receptor; alpha-2/beta-3/gamma-2 (Homo sapiens, UniProt P18507+P28472+P47869)
T2 sequence (P18507 whole entry): T1 sequence (P18507 whole entry)
T2 sequence (P28472 whole entry): T1 sequence (P28472 whole entry)
T2 sequence (P47869 whole entry): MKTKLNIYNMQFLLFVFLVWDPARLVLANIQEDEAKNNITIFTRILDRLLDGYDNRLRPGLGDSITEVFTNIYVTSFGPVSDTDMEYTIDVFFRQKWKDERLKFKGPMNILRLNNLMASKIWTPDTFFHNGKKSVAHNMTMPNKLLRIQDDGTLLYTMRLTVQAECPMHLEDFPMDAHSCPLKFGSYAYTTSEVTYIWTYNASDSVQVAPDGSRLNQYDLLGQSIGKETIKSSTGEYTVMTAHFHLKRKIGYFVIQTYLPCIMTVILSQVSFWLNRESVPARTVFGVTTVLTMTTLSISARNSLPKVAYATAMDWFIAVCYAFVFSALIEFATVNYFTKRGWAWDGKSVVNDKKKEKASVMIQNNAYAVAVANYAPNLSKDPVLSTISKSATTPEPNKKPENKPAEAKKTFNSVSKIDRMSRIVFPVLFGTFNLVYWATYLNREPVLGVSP
Experiment: Displacement of [3H]flumazenil from GABAA alpha-2-beta-3-gamma-2 receptor
Type: protein-complex assay

First: Cc1noc(Cc2nc3n(n2)Cc2c(C)ncn2-c2ccc(Br)cc2-3)n1
Second: COCc1nc2n(n1)Cc1c(C)ncn1-c1ccc(Br)cc1-2
The Ki of the first is 2.2-fold lower: 0.317 µM for the first, 0.693 µM for the second.

`Cc1nc2n(n1)Cc1c(C)ncn1-c1ccc(Br)cc1-2` gave a Ki of 3.16 µM.

Test system: not listed separately
Experiment: Selectivity ratio of Ki for GABAA alpha-3-beta-3-gamma-2 receptor to Ki for GABAA alpha-5-beta-3-gamma-2 receptor

Molecule `COc1ccc2c(c1)-c1nc(Cc3cc(C)no3)nn1Cc1c(C)ncn1-2` has a Ratio Ki of 222.

Biological target: T3, GABA-A receptor; alpha-1/beta-3/gamma-2 (Homo sapiens, UniProt P14867+P18507+P28472)
T3 sequence (P14867 whole entry): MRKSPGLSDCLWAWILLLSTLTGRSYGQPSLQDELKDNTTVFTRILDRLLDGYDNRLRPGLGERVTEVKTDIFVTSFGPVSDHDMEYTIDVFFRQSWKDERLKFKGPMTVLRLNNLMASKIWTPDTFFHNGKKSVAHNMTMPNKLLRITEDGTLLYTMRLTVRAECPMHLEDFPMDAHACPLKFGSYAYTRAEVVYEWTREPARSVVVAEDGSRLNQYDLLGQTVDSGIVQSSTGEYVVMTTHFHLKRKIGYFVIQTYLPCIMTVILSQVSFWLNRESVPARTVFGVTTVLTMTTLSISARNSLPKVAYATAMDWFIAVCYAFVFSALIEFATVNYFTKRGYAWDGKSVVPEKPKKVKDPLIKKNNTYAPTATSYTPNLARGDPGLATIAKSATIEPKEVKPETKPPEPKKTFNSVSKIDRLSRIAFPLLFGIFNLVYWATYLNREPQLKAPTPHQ
T3 sequence (P18507 whole entry): T1 sequence (P18507 whole entry)
T3 sequence (P28472 whole entry): T1 sequence (P28472 whole entry)
Experiment: Displacement of [3H]flumazenil from GABAA alpha-1-beta-3-gamma-2 receptor
Type: protein-complex assay

`Cc1noc(Cc2nc3n(n2)Cc2c(C)ncn2-c2ccc(Br)cc2-3)n1` and `COCc1nc2n(n1)Cc1c(C)ncn1-c1ccc(Br)cc1-2` are within 1.5-fold of each other in Ki: 0.469 µM for the first, 0.619 µM for the second.

In the case of `Cc1nc2n(n1)Cc1c(C)ncn1-c1ccc(Br)cc1-2`, the Ki is reported as 1.42 µM.

Biological target: T4, GABA-A receptor; alpha-5/beta-3/gamma-2 (Homo sapiens, UniProt P18507+P28472+P31644)
T4 sequence (P18507 whole entry): T1 sequence (P18507 whole entry)
T4 sequence (P28472 whole entry): T1 sequence (P28472 whole entry)
T4 sequence (P31644 whole entry): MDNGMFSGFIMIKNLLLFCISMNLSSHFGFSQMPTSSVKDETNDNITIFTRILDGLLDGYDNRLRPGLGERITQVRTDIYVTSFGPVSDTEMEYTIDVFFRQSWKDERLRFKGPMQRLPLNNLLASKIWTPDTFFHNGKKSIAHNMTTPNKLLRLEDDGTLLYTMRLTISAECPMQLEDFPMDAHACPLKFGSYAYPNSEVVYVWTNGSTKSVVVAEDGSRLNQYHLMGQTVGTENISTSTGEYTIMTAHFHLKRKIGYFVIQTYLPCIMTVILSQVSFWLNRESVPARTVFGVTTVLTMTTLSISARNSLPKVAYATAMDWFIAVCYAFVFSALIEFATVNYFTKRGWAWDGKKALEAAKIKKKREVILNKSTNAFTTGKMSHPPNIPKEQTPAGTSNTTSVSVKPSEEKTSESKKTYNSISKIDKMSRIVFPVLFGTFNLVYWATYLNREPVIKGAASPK
Experiment: Displacement of [3H]flumazenil from GABAA alpha-5-beta-3-gamma-2 receptor
Type: protein-complex assay

First: Cc1noc(Cc2nc3n(n2)Cc2c(C)ncn2-c2ccc(Br)cc2-3)n1
Second: COCc1nc2n(n1)Cc1c(C)ncn1-c1ccc(Br)cc1-2
The Ki of the first is 14-fold lower: 0.0009 µM for the first, 0.013 µM for the second.

Compared with `Cc1nc2n(n1)Cc1c(C)ncn1-c1ccc(Br)cc1-2`, `COc1ccc2c(c1)-c1nc(Cc3cc(C)no3)nn1Cc1c(C)ncn1-2` is 9.1-fold lower in Ki: 0.02 µM for the first, 0.0022 µM for the second.

Test system: not listed separately
Experiment: Selectivity ratio of Ki for GABAA alpha-1-beta-3-gamma-2 receptor to Ki for GABAA alpha-5-beta-3-gamma-2 receptor

In the case of `COc1ccc2c(c1)-c1nc(Cc3cc(C)no3)nn1Cc1c(C)ncn1-2`, the Ratio Ki is reported as 307.

Test system: not listed separately
Experiment: Selectivity ratio of Ki for GABAA alpha-2-beta-3-gamma-2 receptor to Ki for GABAA alpha-5-beta-3-gamma-2 receptor

In the case of `COc1ccc2c(c1)-c1nc(Cc3cc(C)no3)nn1Cc1c(C)ncn1-2`, the Ratio Ki is reported as 193.
